Experimental data: patent US9567625B2, “Method for detection of microorganism and kit for detection of microorganism” (MORINAGA MILK INDUSTRY CO., LTD., priority 2006, dated 2017)

Legend:
[1] = system: hlyA gene of Listeria; test: PCR targeting the hlyA gene after EMA treatment and topoisomerase poison or DNA gyrase poison treatment; format: cell-based, Listeria monocytogenes; conditions: Listeria injured cells
Protocol: (§1) The live cell count of the live cell suspension was 1.3×10^8 cfu/ml
(§2) Therefore, the time for leaving the suspension at 4° C. under light shielding after the addition of EMA was shortened to 5 minutes, and the visible light irradiation time was also shortened to 5 minutes.
(§3) As described above, 1 tube of 1 ml EMA-untreated live cell suspension, […] of 1 ml EMA-treated live cell suspension, 1 tube of 1 ml EMA-untreated injured cell suspension, and 7 tubes of 1 ml EMA-treated injured cell suspension were prepared.
(§4) The EMA-treated live cell and injured cell suspensions were divided into 6 sets, each of which consisted of 1 tube of the live cell suspension and 1 tube of injured cell suspension.
(§5) A master mix (total volume: 50 μl) of the following composition was prepared. • Ex-Taq® (Takara Shuzo, catalog number: RR001B; TaKaRa Ex Taq enzyme): 0.25 μl • 10× Ex-Taq® Buffer (Takara Shuzo, catalog number: RR001B): 5 μl • dNTP mixture (Takara Shuzo, catalog number: RR001B): 4 μl • 5 pmol/μl SEQ ID NO: 7 (hlyA-F) DNA: 2.5 μl • 5 pmol/μl SEQ ID NO: 8 (hlyA-R) DNA: 2.5 μl • 2×SYBR® Green (cyanine dye) (BMA, catalog number: 50513): 10 μl • Sterilized water: 15.75 μl • Template DNA (15 ng/μl): 10 μl 3-1-2) PCR Thermal Cycle Profile for Amplification of hlyA Gene
(§6) Each of the DNA solutions prepared in 2-3) mentioned above was diluted to 15 ng/μl with TE buffer, and 10 μl of the diluted solution was used as a template DNA in 3-1-1) mentioned above. That is, 150 ng of the template DNA was contained in 50 μl of the PCR mixture. As a negative control, 10 μl of TE buffer was used.
According to the PCR thermal cycle profile shown in 3-1-2) mentioned above, PCR was performed by using a real-time PCR apparatus i Cycler® (Biorad, model number: iQ).
(§7) For the detection of the hlyA gene amplification product, 3% agarose gel was used.

[2] = system: 16S rRNA gene of Listeria; test: PCR targeting the 16S rRNA gene after EMA treatment and topoisomerase poison or DNA gyrase poison treatment; format: cell-based, Listeria monocytogenes; conditions: Listeria injured cells
Protocol: as §1, §2, §3, §4
The “PCR thermal cycle profile for amplification of 16S rRNA gene” mentioned in Example 3, 3-2) (Table 3) was applied.
as §6, with “2-3)” for “2-3) mentioned above”, “3-1-1) or 3-2-1)” for “3-1-1)”
According to the PCR thermal cycle profile shown in 3-2-2) or 3-2-3) mentioned above, PCR was performed by using a real-time PCR apparatus i Cycler® (Biorad, model number: iQ).
as §7

[3] = system: 23S rRNA gene of Enterobacter; test: Real-time PCR and TM analysis targeting the 23S rRNA gene after ciprofloxacin treatment; format: cell-based, Enterobacter sakazakii; conditions: ciprofloxacin 72 hours; for result of PCR: PCR terminated after 27 cycles
Protocol: as §5, with “enzyme:” for “enzyme):”, “1 (23S-F)” for “7 (hlyA-F)”, “2 (23S-R) DNA: 2.5 μl • 5 pmol/μl SEQ ID NO: 3 (23S-MF) DNA: 2.5 μl • 5 pmol/μl SEQ ID NO: 4 (23S-MR)” for “8 (hlyA-R)”, “μl” for “μl 3-1-2) PCR Thermal Cycle Profile for Amplification of hlyA Gene”
The primers of SEQ ID NOS: 1 and 2 are primers for amplifying substantially all the region of 23S rRNA, and they provide an amplification fragment of about 2840 bp mainly from gram-negative bacteria. The primers of SEQ ID NOS: 3 and 4 correspond to the center region of 23S rRNA, and they provide an amplification fragment of about 900 bp from gram-positive bacteria (also from gram negative bacteria).
Each of the DNA solutions prepared in 1-3) was diluted to 15 ng/μl with TE buffer, and 10 μl of the diluted solution was used as a template DNA in 2-1). That is, 150 ng of the template DNA was contained in 50 μl of the PCR reaction mixture. As a negative control, 10 μl of TE buffer was used.
According to the PCR thermal cycle profile shown in 2-2) mentioned above, PCR and TM analysis (melting temperature analysis) of the amplification product were performed by using a real-time PCR apparatus i Cycler® (Biorad, model number: iQ). The threshold value (boundary value) of real-time PCR was set to a value obtained by multiplying the standard deviation SD of fluorescence amounts obtained with SYBR® Green (cyanine dye) for 0 to 10 cycles by 10. In each real-time PCR amplification curve, number of cycle showing a value exceeding the threshold value is referred to as “Ct value” hereafter.

[4] = system: 23S rRNA gene of Listeria; test: Real-time PCR targeting the 23S rRNA gene after ciprofloxacin treatment; format: cell-based, Listeria monocytogenes; conditions: PCR terminated after 20 cycles
Protocol: as §5, with “enzyme:” for “enzyme):”, “1 (23S-F)” for “7 (hlyA-F)”, “2 (23S-R) DNA: 2.5 μl • 5 pmol/μl SEQ ID NO: 3 (23S-MF) DNA: 2.5 μl • 5 pmol/μl SEQ ID NO: 4 (23S-MR)” for “8 (hlyA-R)”, “μl” for “μl 3-1-2) PCR Thermal Cycle Profile for Amplification of hlyA Gene”
The primers of SEQ ID NOS: 1 and 2 are primers for amplifying substantially all the region of 23S rRNA, and they provide an amplification fragment of about 2840 bp mainly from gram-negative bacteria. […]
According to the PCR thermal cycle profile shown in 2-2) mentioned above, PCR and TM analysis (melting temperature analysis) of the amplification product were performed by using a real-time PCR apparatus i Cycler® (Biorad, model number: iQ). The threshold value (boundary value) of real-time PCR was set to a value obtained by multiplying the standard deviation SD of fluorescence amounts obtained with SYBR® Green (cyanine dye) for 0 to 10 cycles by 10. […]

[5] = system: 16S rRNA gene of Citrobacter; test: PCR targeting the 16S rRNA gene after EMA treatment, electrophoresis; format: cell-based, Citrobacter koseri; conditions: EMA-treated injured cells of Citrobacter, EMA 10 μl of 1000 μg/ml per 1 ml, 4° C. 30 minutes, visible light 10 minutes
Protocol: (§8) The live cell counts of these live cell suspensions were Escherichia coli: 3.2×10^8 cfu/ml, Citrobacter: 6.7×10^7 cfu/ml, Salmonella: 1.9×10^8 cfu/ml, and Klebsiella: 4.8×10^8 cfu/ml.
(§9) 10 μl of an EMA solution prepared at a concentration of 1000 μg/ml by dissolving EMA (Sigma, catalog number: E2028) in sterilized water, and filtering the solution through a 0.45-μm microfilter was added to each of the suspensions of the gram-negative bacteria (live cells and injured cells) and gram-positive bacteria (live cells and injured cells) in a volume of 1 ml, and the mixture was left at 4° C. for 30 minutes under light shielding. Then, the suspension was placed on ice, and irradiated with visible light of 500 W from a lamp (FLOOD PRF, 100 V, 500 W, Iwasaki Electric Co., Ltd.) disposed at a distance of 20 cm from the suspension for 10 minutes. The above steps of adding the EMA solution and irradiating visible light may also be referred to as the “EMA treatment”.
(§10) 990 μl of physiological saline was added to each microtube, and the mixture was sufficiently stirred. […]

[6] = system: 16S rRNA gene of Klebsiella; test: as above; format: cell-based, Klebsiella oxytoca; conditions: EMA-treated injured cells of Klebsiella, EMA 10 μl of 1000 μg/ml per 1 ml, 4° C. 30 minutes, visible light 10 minutes
Protocol: as §8, §9, §10

[7] = system: 16S rRNA gene of the other bacteria; test: as above; format: cell-based; conditions: EMA-treated injured cells of the other bacteria, EMA 10 μl of 1000 μg/ml per 1 ml, 4° C. 30 minutes, visible light 10 minutes
Protocol: as §8
(§11) The live cell counts of these live cell suspensions were Bacillus: 3.0×10^7 cfu/ml, Listeria: 1.3×10^8 cfu/ml, and Staphylococcus: 1.1×10^6 cfu/ml.
as §9, §10

[8] = system: 23S rRNA gene of gram-negative bacteria and gram-positive bacteria; test: PCR targeting the 23S rRNA gene after EMA treatment, electrophoresis; format: cell-based; conditions: 150 ng template DNA in 50 μl
Protocol: as §8, §11, §9, §10

[9] = poison used together with EMA treatment, 30° C. for 30 minutes
[10] = EMA treatment alone (5 minutes, visible light 5 minutes)

Q: Which results are given for `COc1cc([C@@H]2c3cc4c(cc3[C@@H](O[C@@H]3O[C@@H]5CO[C@@H](C)O[C@H]5[C@H](O)[C@H]3O)[C@H]3COC(=O)[C@H]23)OCO4)cc(OC)c1O` [etoposide]?
A: inhibition of DNA amplification [1, 9]: markedly inhibited; inhibition of DNA amplification [2, 9]: markedly inhibited

Q: How did the “inhibition of DNA amplification” value [1, 9] turn out when `O=C1c2c(O)ccc(O)c2C(=O)c2c(NCCNCCO)ccc(NCCNCCO)c21` [mitoxantrone] was run?
A: markedly inhibited

Q: `CC[C@@]1(O)C(=O)OCc2c1cc1n(c2=O)Cc2cc3ccccc3nc2-1` [camptothecin] was tested. Which “inhibition of DNA amplification” value [2, 9] did it give?
A: markedly inhibited

Q: How did the “inhibition of DNA amplification” value [2, 9] turn out when `Cc1c2ccncc2c(C)c2c1[nH]c1ccccc12` [ellipticine] was run?
A: markedly inhibited

Q: How did the “Ct (injured cells, 72 hours of Cip)−Ct (injured cells, No Cip)” value ([3]; Enterobacter injured cells) turn out when `O=C(O)c1cn(C2CC2)c2cc(N3CCNCC3)c(F)cc2c1=O` [ciprofloxacin] was run?
A: 17

Q: And the “result of PCR” value ([3]; Enterobacter injured cells)?
A: negative

Q: What about the “Ct (live cells, 72 hours of Cip)−Ct (live cells, No Cip)” value ([3]; Enterobacter live cells) of the same molecule?
A: 13

Q: What about the “result of PCR” value ([3]; Enterobacter live cells) of the same molecule?
A: positive

Q: And the “TM pattern analysis of the PCR amplification product” value ([3]; Enterobacter sakazakii injured cells)?
A: is not the targeted amplification product

Q: And the “TM pattern analysis of the PCR amplification product” value ([3]; Enterobacter sakazakii live cells)?
A: corresponds to the 23S rRNA gene as the target

Q: And the “result of PCR” value ([4]; Listeria injured cells)?
A: negative

Q: What about the “result of PCR” value ([4]; Listeria live cells) of the same molecule?
A: positive

Q: How did the PCR amplification product [5] turn out when `CC[n+]1c(-c2ccccc2)c2cc(N=[N+]=[N-])ccc2c2ccc(N)cc21` [EMA, ethidium monoazide] was run?
A: no PCR amplification product was observed

Q: And the PCR amplification product [6]?
A: no PCR amplification product was observed

Q: What about the PCR amplification product [7] of the same molecule?
A: amplification products were observed

Q: And the “inhibition of PCR” value ([8]; injured cells at a level of 10^8 cfu/ml)?
A: completely inhibited

Q: What about the “inhibition of PCR” value ([8]; live cells) of the same molecule?
A: not substantially completely inhibited

Q: What about the “inhibition of DNA amplification” value [1, 10] of the same molecule?
A: only slightly inhibited

Q: And the “inhibition of DNA amplification” value [2, 10]?
A: only slightly inhibited
